“And” between values parts separate entries of the source, which are not always exact repeats. Identical values can stand only once. Toxic doses and inconclusive results are not listed.
System: CD2F1 mice, L1210 leukemia ip, survival T/C
Assay: NCI In Vivo Anticancer Drug Screen. Data for tumor model L1210 Leukemia (intraperitoneal) in CD2F1 (CDF1) mice
Conditions: higher = longer survival
How it was run: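 Compound-dosed mice with transplantable tumor versus matched vehicle controls; endpoint ratio T/C reported.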

[1] = endpoint: mean survival time, dose: 100.0 mg/kg/injection, schedule: Q04DX003 (ip), vehicle: saline with Tween-80
[2] = endpoint: mean survival time, dose: 100.0 mg/kg/injection, schedule: Q01DX009 (ip), vehicle: saline with Tween-80
[3] = endpoint: mean survival time, dose: 200.0 mg/kg/injection, schedule: Q01DX009 (ip), vehicle: saline with Tween-80
[4] = endpoint: mean survival time, dose: 25.0 mg/kg/injection, schedule: Q01DX009 (ip), vehicle: saline with Tween-80
[5] = endpoint: mean survival time, dose: 50.0 mg/kg/injection, schedule: Q01DX009 (ip), vehicle: saline with Tween-80
[6] = endpoint: mean survival time, dose: 200.0 mg/kg/injection, schedule: Q04DX003 (ip), vehicle: saline with Tween-80
[7] = endpoint: mean survival time, dose: 400.0 mg/kg/injection, schedule: Q04DX003 (ip), vehicle: saline with Tween-80
[8] = endpoint: mean survival time, dose: 50.0 mg/kg/injection, schedule: Q01DX001 (ip), vehicle: saline
[9] = endpoint: mean survival time, dose: 100.0 mg/kg/injection, schedule: Q01DX001 (ip), vehicle: saline
[10] = endpoint: mean survival time, dose: 200.0 mg/kg/injection, schedule: Q01DX001 (ip), vehicle: saline
[11] = endpoint: mean survival time, dose: 400.0 mg/kg/injection, schedule: Q01DX001 (ip), vehicle: saline
[12] = endpoint: mean survival time, dose: 100.0 mg/kg/injection, schedule: Q04DX003 (ip), vehicle: Klucel (hydroxypropylcellulose) (HPC)
[13] = endpoint: mean survival time, dose: 200.0 mg/kg/injection, schedule: Q04DX003 (ip), vehicle: Klucel (hydroxypropylcellulose) (HPC)
[14] = endpoint: mean survival time, dose: 400.0 mg/kg/injection, schedule: Q04DX003 (ip), vehicle: Klucel (hydroxypropylcellulose) (HPC)
[15] = endpoint: mean survival time, dose: 100.0 mg/kg/injection, schedule: Q01DX009 (ip), vehicle: Klucel (hydroxypropylcellulose) (HPC)

CSc1ncnc2c(C3OC(COC(C)=O)C(OC(C)=O)C3OC(C)=O)[nH]nc12 (stereo not given)
T/C (endpoint: median survival time, dose: 8.0 mg/kg/injection, schedule: Q01DX005 (ip), vehicle: distilled water + Tween-80): 94 % of control
T/C (endpoint: median survival time, dose: 16.0 mg/kg/injection, schedule: Q01DX005 (ip), vehicle: distilled water + Tween-80): 103 % of control
T/C (endpoint: median survival time, dose: 32.0 mg/kg/injection, schedule: Q01DX005 (ip), vehicle: distilled water + Tween-80): 96 % of control
T/C (endpoint: median survival time, dose: 64.0 mg/kg/injection, schedule: Q01DX005 (ip), vehicle: distilled water + Tween-80): 103 % of control
T/C (endpoint: median survival time, dose: 128.0 mg/kg/injection, schedule: Q01DX005 (ip), vehicle: distilled water + Tween-80): 106 % of control

CCOC(=O)C(C#N)C(C(C)=O)C(=O)OCC (stereo not given)
T/C (endpoint: mean survival time, dose: 25.0 mg/kg/injection, schedule: Q04DX003 (ip), vehicle: saline with Tween-80): 103 % of control
T/C (endpoint: mean survival time, dose: 50.0 mg/kg/injection, schedule: Q04DX003 (ip), vehicle: saline with Tween-80): 98 % of control
T/C [1]: 97 % of control

O=C1CNC(=O)N1CN1CCOCC1
T/C (endpoint: median survival time, dose: 50.0 mg/kg/injection, schedule: Q01DX009 (ip), vehicle: Klucel (hydroxypropylcellulose) (HPC)): 108 % of control
T/C (endpoint: median survival time, dose: 100.0 mg/kg/injection, schedule: Q01DX009 (ip), vehicle: Klucel (hydroxypropylcellulose) (HPC)): 116 % of control
T/C (endpoint: median survival time, dose: 200.0 mg/kg/injection, schedule: Q01DX009 (ip), vehicle: Klucel (hydroxypropylcellulose) (HPC)): 116 % of control
T/C (endpoint: median survival time, dose: 400.0 mg/kg/injection, schedule: Q01DX009 (ip), vehicle: Klucel (hydroxypropylcellulose) (HPC)): 117 % of control

OC1(c2cccc(C(F)(F)F)c2)CCN(C2CC2c2ccccc2)CC1 (stereo not given)
T/C (endpoint: mean survival time, dose: 100.0 mg/kg/injection, schedule: Q04DX002 (ip), vehicle: saline with Tween-80): 97 % of control
T/C (endpoint: mean survival time, dose: 200.0 mg/kg/injection, schedule: Q04DX002 (ip), vehicle: saline with Tween-80): 95 % of control

CC(=O)NNC(=O)c1ccc(Br)cc1
T/C [2]: 107 % of control
T/C [3]: 119 % of control

O=C1/C(=C/c2ccccc2)CCC/C1=C\c1ccccc1
T/C [4]: 94 % of control
T/C [5]: 94 % of control
T/C [2]: 89 % of control

COc1cc(/C=C/C(C)=N/Nc2ccc([N+](=O)[O-])cc2[N+](=O)[O-])ccc1O
T/C [1]: 95 % of control
T/C [6]: 94 % of control
T/C [7]: 95 % of control

CC(=O)ON=C1C=CC(=C(C#N)c2ccccc2)C=C1
T/C [8]: 96 % of control
T/C [5]: 97 % of control and 101 % of control
T/C [9]: 98 % of control
T/C [2]: 98 % of control and 100 % of control
T/C [1]: 91 % of control
T/C [10]: 95 % of control
T/C [3]: 93 % of control and 101 % of control
T/C [6]: 95 % of control
T/C [11]: 90 % of control
T/C [7]: 105 % of control

CCC(N)(CO)CO
T/C (endpoint: mean survival time, dose: 100.0 mg/kg/injection, schedule: Q01DX009 (ip), vehicle: saline): 100 % of control
T/C (endpoint: mean survival time, dose: 200.0 mg/kg/injection, schedule: Q01DX009 (ip), vehicle: saline): 94 % of control
T/C (endpoint: mean survival time, dose: 400.0 mg/kg/injection, schedule: Q01DX009 (ip), vehicle: saline): 94 % of control

CCCCCC(C=O)C(O)(C(F)(F)F)C(F)(F)Cl (stereo not given)
T/C [12]: 96 % of control
T/C [13]: 91 % of control
T/C [14]: 96 % of control

CC(=O)Oc1[nH]c(=O)c2cccc3c2c1CCC3
T/C (endpoint: median survival time, dose: 25.0 mg/kg/injection, schedule: Q01DX009 (ip), vehicle: saline with Tween-80): 106 % of control
T/C (endpoint: median survival time, dose: 50.0 mg/kg/injection, schedule: Q01DX009 (ip), vehicle: saline with Tween-80): 104 % of control
T/C (endpoint: median survival time, dose: 100.0 mg/kg/injection, schedule: Q01DX009 (ip), vehicle: saline with Tween-80): 100 % of control and 104 % of control
T/C (endpoint: median survival time, dose: 200.0 mg/kg/injection, schedule: Q01DX009 (ip), vehicle: saline with Tween-80): 97 % of control and 103 % of control
T/C (endpoint: median survival time, dose: 400.0 mg/kg/injection, schedule: Q01DX009 (ip), vehicle: saline with Tween-80): 97 % of control and 108 % of control

CC(=O)C1CCOC1=O (stereo not given)
T/C (endpoint: mean survival time, dose: 100.0 mg/kg/injection, schedule: Q04DX003 (ip), vehicle: saline): 96 % of control
T/C (endpoint: mean survival time, dose: 200.0 mg/kg/injection, schedule: Q04DX003 (ip), vehicle: saline): 104 % of control
T/C (endpoint: mean survival time, dose: 400.0 mg/kg/injection, schedule: Q04DX003 (ip), vehicle: saline): 98 % of control

Cc1ccc(NC(=O)Nc2cccc(C(=O)O)c2)cc1[N+](=O)[O-]
T/C [5]: 94 % of control
T/C [2]: 98 % of control
T/C [3]: 98 % of control

CC1(O)Nc2nc3c(ncn3C3OC(CO)C(O)C3O)c(=O)n2C1O (stereo not given)
T/C (endpoint: mean survival time, dose: 12.5 mg/kg/injection, schedule: Q01DX005 (ip), vehicle: water): 106 % of control
T/C (endpoint: mean survival time, dose: 25.0 mg/kg/injection, schedule: Q01DX005 (ip), vehicle: water): 95 % of control
T/C (endpoint: mean survival time, dose: 50.0 mg/kg/injection, schedule: Q01DX005 (ip), vehicle: water): 93 % of control
T/C (endpoint: mean survival time, dose: 100.0 mg/kg/injection, schedule: Q01DX005 (ip), vehicle: water): 101 % of control
T/C (endpoint: mean survival time, dose: 200.0 mg/kg/injection, schedule: Q01DX005 (ip), vehicle: water): 95 % of control

CCCCCCCCCCCCCCCCCCOCC(COP(=O)([O-])OCC[N+](C)(C)C)OC (stereo not given)
T/C (endpoint: median survival time, dose: 6.25 mg/kg/injection, schedule: Q01DX009 (ip), vehicle: suspension in saline): 98 % of control
T/C (endpoint: median survival time, dose: 12.5 mg/kg/injection, schedule: Q01DX009 (ip), vehicle: suspension in saline): 93 % of control
T/C (endpoint: median survival time, dose: 25.0 mg/kg/injection, schedule: Q01DX009 (ip), vehicle: suspension in saline): 104 % of control
T/C (endpoint: median survival time, dose: 50.0 mg/kg/injection, schedule: Q01DX009 (ip), vehicle: suspension in saline): 88 % of control

CN1C(=O)/C(=C/c2cccs2)SC1=S
T/C [9]: 95 % of control
T/C [10]: 98 % of control
T/C [11]: 103 % of control

OC1CCCC2CCCCC12 (stereo not given)
T/C [1]: 100 % of control
T/C [6]: 109 % of control
T/C [7]: 94 % of control

CC1(CC(C)(C)C2CCCCC2)OCCO1
T/C (endpoint: mean survival time, dose: 25.0 mg/kg/injection, schedule: Q01DX009 (ip), vehicle: Klucel (hydroxypropylcellulose) (HPC)): 93 % of control
T/C (endpoint: mean survival time, dose: 50.0 mg/kg/injection, schedule: Q01DX009 (ip), vehicle: Klucel (hydroxypropylcellulose) (HPC)): 95 % of control
T/C [15]: 91 % of control

CC1CC(=O)C2CC(Cl)CCC2(C)C1C (stereo not given)
T/C [4]: 97 % of control
T/C [5]: 90 % of control
T/C [2]: 94 % of control

O=S(=O)(O)c1ccccc1.O=S(=O)(O)c1ccccc1.[NH-]C1CCCCC1[NH-].[Pt+2]
T/C (endpoint: mean survival time, dose: 1.0 mg/kg/injection, schedule: Q01DX009 (ip), vehicle: dextrose): 220 % of control
T/C (endpoint: mean survival time, dose: 1.0 mg/kg/injection, schedule: Q04DX003 (ip), vehicle: other): 170 % of control
T/C (endpoint: mean survival time, dose: 2.0 mg/kg/injection, schedule: Q04DX003 (ip), vehicle: other): 218 % of control
T/C (endpoint: mean survival time, dose: 4.0 mg/kg/injection, schedule: Q01DX001 (ip), vehicle: dextrose): 155 % of control
T/C (endpoint: mean survival time, dose: 4.0 mg/kg/injection, schedule: Q04DX003 (ip), vehicle: dextrose): 221 % of control
T/C (endpoint: mean survival time, dose: 6.0 mg/kg/injection, schedule: Q04DX003 (ip), vehicle: dextrose): 200 % of control
T/C (endpoint: mean survival time, dose: 6.0 mg/kg/injection, schedule: Q04DX003 (ip), vehicle: other): 119 % of control
T/C (endpoint: mean survival time, dose: 8.0 mg/kg/injection, schedule: Q01DX001 (ip), vehicle: dextrose): 155 % of control
T/C (endpoint: mean survival time, dose: 8.0 mg/kg/injection, schedule: Q04DX003 (ip), vehicle: dextrose): 191 % of control
T/C (endpoint: mean survival time, dose: 12.0 mg/kg/injection, schedule: Q01DX001 (ip), vehicle: dextrose): 196 % of control
T/C (endpoint: mean survival time, dose: 16.0 mg/kg/injection, schedule: Q01DX001 (ip), vehicle: dextrose): 152 % of control and 303 % of control
T/C (endpoint: mean survival time, dose: 24.0 mg/kg/injection, schedule: Q01DX001 (ip), vehicle: dextrose): 262 % of control

C1=Cc2ccccc2/C1=C/c1ccc(/C=C2\C=Cc3ccccc32)cc1
T/C [2]: 98 % of control
T/C [3]: 89 % of control
T/C (endpoint: mean survival time, dose: 700.0 mg/kg/injection, schedule: Q01DX009 (ip), vehicle: saline with Tween-80): 89 % of control

O=C(N/N=C\c1c(Cl)cccc1Cl)c1ccccc1
T/C [15]: 94 % of control
T/C [12]: 100 % of control
T/C (endpoint: mean survival time, dose: 200.0 mg/kg/injection, schedule: Q01DX009 (ip), vehicle: Klucel (hydroxypropylcellulose) (HPC)): 96 % of control
T/C [13]: 100 % of control
T/C [14]: 96 % of control

CC(C)OC(=O)C#CC(=O)O
T/C (endpoint: mean survival time, dose: 25.0 mg/kg/injection, schedule: Q01DX001 (ip), vehicle: saline): 97 % of control
T/C [8]: 97 % of control

CCOC(=O)c1cc2cc([N+](=O)[O-])ccc2[nH]1
T/C [1]: 92 % of control
T/C [6]: 87 % of control
T/C [7]: 91 % of control

Source: PubChem BioAssay AID256 (DTP/NCI, 2004)
